Assay results from ChEMBL document CHEMBL5252548, “A review on flavonoid-based scaffolds as multi-target-directed ligands (MTDLs) for Alzheimer's disease” (Eur J Med Chem, 2018).
pIC50, pKi: −log10 of the molar value.

How the values were obtained:
Acetylcholinesterase [1] = molecular target: T1, Acetylcholinesterase (Homo sapiens, UniProt P22303); assay: Inhibition of AChE (unknown origin) at 100 uM relative to control
Beta-secretase 1 [2] = molecular target: T2, Beta-secretase 1 (Homo sapiens, UniProt P56817); assay: Inhibition of human BACE-1 at 100 uM relative to control
T2 sequence (P56817 whole entry): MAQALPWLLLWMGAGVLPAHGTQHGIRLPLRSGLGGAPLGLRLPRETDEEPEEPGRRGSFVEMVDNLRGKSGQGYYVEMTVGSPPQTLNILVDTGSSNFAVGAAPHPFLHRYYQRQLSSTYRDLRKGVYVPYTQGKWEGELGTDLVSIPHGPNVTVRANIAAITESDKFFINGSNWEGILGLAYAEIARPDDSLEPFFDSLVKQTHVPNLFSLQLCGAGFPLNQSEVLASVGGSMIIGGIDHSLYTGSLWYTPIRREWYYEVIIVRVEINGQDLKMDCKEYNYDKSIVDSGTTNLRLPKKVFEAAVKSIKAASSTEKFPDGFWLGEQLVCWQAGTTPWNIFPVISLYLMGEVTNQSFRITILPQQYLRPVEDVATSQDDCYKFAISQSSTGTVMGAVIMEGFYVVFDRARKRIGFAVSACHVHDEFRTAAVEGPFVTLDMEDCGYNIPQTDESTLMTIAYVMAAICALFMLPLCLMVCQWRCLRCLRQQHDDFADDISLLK

[3] = molecular target: T3, Amyloid-beta precursor protein (Homo sapiens, UniProt P05067); assay: Inhibition of self-induced amyloid beta (unknown origin) aggregation at 100 uM relative to control
T3 sequence (P05067 whole entry): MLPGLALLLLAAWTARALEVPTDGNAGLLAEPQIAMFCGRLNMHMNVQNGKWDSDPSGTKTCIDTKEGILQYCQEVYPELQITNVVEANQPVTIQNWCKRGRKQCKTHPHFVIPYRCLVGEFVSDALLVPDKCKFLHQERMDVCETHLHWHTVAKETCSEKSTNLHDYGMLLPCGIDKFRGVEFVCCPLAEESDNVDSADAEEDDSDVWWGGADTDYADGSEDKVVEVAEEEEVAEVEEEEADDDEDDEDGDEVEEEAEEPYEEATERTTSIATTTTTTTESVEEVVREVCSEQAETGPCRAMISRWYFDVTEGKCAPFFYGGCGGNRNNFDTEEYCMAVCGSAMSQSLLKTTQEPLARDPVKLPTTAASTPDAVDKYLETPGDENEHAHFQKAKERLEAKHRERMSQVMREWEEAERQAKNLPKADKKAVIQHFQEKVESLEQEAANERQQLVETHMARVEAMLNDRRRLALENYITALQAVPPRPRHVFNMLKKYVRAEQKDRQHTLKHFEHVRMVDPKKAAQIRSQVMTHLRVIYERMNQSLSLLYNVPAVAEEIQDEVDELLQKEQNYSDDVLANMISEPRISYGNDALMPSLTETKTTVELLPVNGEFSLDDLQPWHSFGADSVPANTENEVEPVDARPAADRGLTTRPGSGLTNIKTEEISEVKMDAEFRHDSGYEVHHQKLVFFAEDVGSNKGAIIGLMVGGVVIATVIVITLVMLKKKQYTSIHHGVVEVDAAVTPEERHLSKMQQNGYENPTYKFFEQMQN

Cholinesterase [4] = molecular target: T4, Cholinesterase (Homo sapiens, UniProt P06276); assay: Inhibition of BuChE (unknown origin)
T4 sequence (P06276 whole entry): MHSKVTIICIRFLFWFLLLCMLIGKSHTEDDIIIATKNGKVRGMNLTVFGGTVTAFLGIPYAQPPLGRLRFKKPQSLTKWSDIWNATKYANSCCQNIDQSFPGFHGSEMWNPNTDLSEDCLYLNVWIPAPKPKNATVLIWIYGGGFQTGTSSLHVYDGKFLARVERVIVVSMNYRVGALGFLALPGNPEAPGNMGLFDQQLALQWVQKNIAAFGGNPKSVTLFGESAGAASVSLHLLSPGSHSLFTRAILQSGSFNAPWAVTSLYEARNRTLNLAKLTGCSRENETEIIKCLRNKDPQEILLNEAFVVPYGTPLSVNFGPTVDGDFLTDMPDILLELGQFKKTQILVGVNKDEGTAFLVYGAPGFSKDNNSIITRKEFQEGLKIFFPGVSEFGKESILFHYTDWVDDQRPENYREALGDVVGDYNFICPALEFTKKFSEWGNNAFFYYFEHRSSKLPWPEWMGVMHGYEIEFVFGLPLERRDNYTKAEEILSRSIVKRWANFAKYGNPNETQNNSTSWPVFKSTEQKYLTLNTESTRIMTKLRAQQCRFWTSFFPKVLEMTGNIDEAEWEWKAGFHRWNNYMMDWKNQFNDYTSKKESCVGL

Acetylcholinesterase [5] = molecular target: T1, Acetylcholinesterase; assay: Inhibition of AChE (unknown origin)
[6] = molecular target: T5, Amine oxidase [flavin-containing] B (Homo sapiens, UniProt P27338); assay: Inhibition of human MAO-B
T5 sequence (P27338 whole entry): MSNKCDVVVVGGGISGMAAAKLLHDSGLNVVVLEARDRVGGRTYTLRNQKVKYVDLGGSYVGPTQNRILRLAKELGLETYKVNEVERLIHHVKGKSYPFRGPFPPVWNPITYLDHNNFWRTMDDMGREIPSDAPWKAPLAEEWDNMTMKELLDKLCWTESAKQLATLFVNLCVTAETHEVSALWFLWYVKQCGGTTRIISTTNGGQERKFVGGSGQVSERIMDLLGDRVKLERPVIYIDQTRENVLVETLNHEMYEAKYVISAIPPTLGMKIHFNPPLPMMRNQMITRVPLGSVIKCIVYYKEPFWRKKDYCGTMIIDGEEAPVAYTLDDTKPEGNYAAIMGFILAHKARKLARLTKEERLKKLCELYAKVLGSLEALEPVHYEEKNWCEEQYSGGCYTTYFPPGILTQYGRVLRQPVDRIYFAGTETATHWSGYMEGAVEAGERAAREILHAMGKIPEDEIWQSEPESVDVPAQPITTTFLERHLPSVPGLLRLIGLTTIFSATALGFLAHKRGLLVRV

[7] = molecular target: T3, Amyloid-beta precursor protein; assay: Inhibition of self-induced amyloid beta (unknown origin) aggregation
[8] = molecular target: T3, Amyloid-beta precursor protein; assay: Inhibition of self-induced amyloid beta (unknown origin) aggregation at 20 uM relative to control
Beta-secretase 1 [9] = molecular target: T2, Beta-secretase 1; assay: Inhibition of human BACE-1 at 500 uM relative to control
[10] = Antioxidant activity of compound assessed as trolox equivalent preincubated for 15 mins followed by AAPH addition and measured for 90 mins by ORAC-FL assay; assay type: functional; details: time 105.0 min
SH-SY5Y [11] = assay: Neuroprotective activity against human SH-SY5Y cells assessed as increase in cell viability at 25 uM relative to control; assay type: functional
[12] = molecular target: T3, Amyloid-beta precursor protein; assay: Inhibition of amyloid beta (unknown origin) aggregation
Beta-secretase 1 [13] = molecular target: T2, Beta-secretase 1; assay: Inhibition of human BACE-1
[14] = molecular target: T3, Amyloid-beta precursor protein; assay: Inhibition of amyloid beta (1 to 42) (unknown origin) fibril formation incubated for 1 hr by thioflavin-T fluorescence assay
[15] = molecular target: T3, Amyloid-beta precursor protein; assay: Inhibition of self-induced amyloid beta (1 to 42) (unknown origin) aggregation at 10 uM relative to control
Mus musculus [16] = assay: Antialzheimer activity in Tg2576 mouse model assessed as decrease in soluble amyloid beta level in brain homogenate at 20 mg/kg, ip administered daily for 30 days relative to control; assay type: functional; set-up: scale not given: the % may be the effect or the level left; details: time 30 day
SH-SY5Y [17] = assay: Neuroprotective activity against amyloid beta treated human SH-SY5Y cells at 1 nM relative to control; assay type: functional
[18] = molecular target: Glycogen synthase kinase-3 beta (Homo sapiens) (UniProt P49841); assay: Non-competitive inhibition of GSK3-beta (unknown origin) assessed as inhibition of tau hyperphosphorylation at 100 ug/ml incubated for 1 hr in presence of ATP by ADP-Glo kinase assay relative to control; details: dose 100.0 µg/ml
Glycogen synthase kinase-3 beta (Homo sapiens), sequence (P49841 whole entry, looked up): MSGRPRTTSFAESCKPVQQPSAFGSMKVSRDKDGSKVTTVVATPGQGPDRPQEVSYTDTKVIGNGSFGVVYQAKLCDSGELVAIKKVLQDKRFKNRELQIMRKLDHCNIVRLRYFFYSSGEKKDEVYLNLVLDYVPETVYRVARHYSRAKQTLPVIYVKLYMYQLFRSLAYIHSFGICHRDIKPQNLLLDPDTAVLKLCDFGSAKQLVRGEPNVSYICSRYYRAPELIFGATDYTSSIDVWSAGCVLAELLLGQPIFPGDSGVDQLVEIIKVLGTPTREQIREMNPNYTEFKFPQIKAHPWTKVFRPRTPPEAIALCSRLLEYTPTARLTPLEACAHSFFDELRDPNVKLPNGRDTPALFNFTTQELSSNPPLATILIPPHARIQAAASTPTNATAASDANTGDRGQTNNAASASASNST

Acetylcholinesterase [19] = molecular target: T1, Acetylcholinesterase; assay: Inhibition of AChE (unknown origin) relative to control; details: concentration not given here
Beta-secretase 1 [20] = molecular target: T2, Beta-secretase 1; assay: Inhibition of BACE-1 (unknown origin) relative to control; details: concentration not given here
Cholinesterase [21] = molecular target: T4, Cholinesterase; assay: Inhibition of BuChE (unknown origin) relative to control; details: concentration not given here
HT-22 = assay: Neuroprotective activity against glutamate-induced cell death in mouse HT-22 cells at 10 uM relative to control; assay type: functional
[22] = molecular target: T3, Amyloid-beta precursor protein; assay: Inhibition of self-induced amyloid beta (unknown origin) aggregation at 3 uM relative to control
Acetylcholinesterase [23] = molecular target: T1, Acetylcholinesterase; assay: Inhibition of human recombinant AChE preincubated for 20 mins followed by substrate addition by Ellman's method
[24] = molecular target: T3, Amyloid-beta precursor protein; assay: Inhibition of self-induced amyloid beta (unknown origin) aggregation relative to control; details: concentration not given here
Cholinesterase [25] = molecular target: T4, Cholinesterase; assay: Inhibition of human serum BuChE preincubated for 20 mins followed by substrate addition by Ellman's method; assay type: cell-free
Mus musculus [26] = assay: Anti-alzheimer activity in APP/PS1 mouse model assessed as reduction in cerebral levels of insoluble amyloid beta (1 to 40) at 40 mg/kg, po administered via oral gavage once a day for 12 weeks relative to control; assay type: functional; set-up: scale not given: the % may be the effect or the level left
HepG2 = assay: Cytotoxicity against human HepG2 cells assessed as reduction in cell viability at 10 uM relative to control; assay type: functional
[27] = molecular target: T5, Amine oxidase [flavin-containing] B; assay: Inhibition of MAO-B (unknown origin)
Acetylcholinesterase [28] = molecular target: T1, Acetylcholinesterase; assay: Inhibition of AChE (unknown origin) assessed as inhibition constant

T1 sequence (P22303 whole entry): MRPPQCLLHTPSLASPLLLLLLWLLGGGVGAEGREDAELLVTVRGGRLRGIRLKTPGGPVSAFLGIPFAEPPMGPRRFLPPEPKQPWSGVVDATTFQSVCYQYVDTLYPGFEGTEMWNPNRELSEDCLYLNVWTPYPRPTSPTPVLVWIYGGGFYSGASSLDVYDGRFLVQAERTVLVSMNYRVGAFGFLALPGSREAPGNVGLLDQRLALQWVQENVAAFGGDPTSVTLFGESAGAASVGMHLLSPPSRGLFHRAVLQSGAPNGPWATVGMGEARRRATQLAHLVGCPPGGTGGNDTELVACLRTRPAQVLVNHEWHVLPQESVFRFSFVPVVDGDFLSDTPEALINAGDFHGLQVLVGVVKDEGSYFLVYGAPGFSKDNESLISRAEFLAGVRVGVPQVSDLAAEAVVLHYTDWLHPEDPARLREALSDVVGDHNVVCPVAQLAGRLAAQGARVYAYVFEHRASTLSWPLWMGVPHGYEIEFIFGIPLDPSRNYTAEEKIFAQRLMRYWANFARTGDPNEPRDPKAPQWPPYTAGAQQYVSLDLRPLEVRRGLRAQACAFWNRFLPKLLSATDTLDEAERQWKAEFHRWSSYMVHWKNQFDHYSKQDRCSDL

COc1cc2c(cc1CC=C(C)C)C(=O)C[C@@H](c1ccc(O)cc1)O2
inhibition (Acetylcholinesterase [1]): 81%
inhibition (Beta-secretase 1 [2]): 21%
inhibition [3]: 57%

COc1ccc(-c2cc(=O)c3ccc(OCCN4CCCC4)cc3o2)cc1
pIC50 (Cholinesterase [4]): 7.16
pIC50 (Acetylcholinesterase [5]): 6.98

COc1ccc(/C=C2\COc3cc(OCCCN4CCCCC4)ccc3C2=O)cc1
pIC50 (Cholinesterase [4]): 5.04
pIC50 [6]: 5.46
pIC50 (Acetylcholinesterase [5]): 5.40

CN(C)Cc1c(O)c(O)c(O)c2c(=O)cc(-c3ccccc3)oc12
pIC50 (Acetylcholinesterase [5]): 4.09

CCN(CC)CCOc1ccc2c(=O)cc(-c3ccc(OC)cc3)oc2c1
pIC50 (Cholinesterase [4]): 7.31
pIC50 (Acetylcholinesterase [5]): 7.57

Cc1ccc(NCC[C@@H]2CCCN3CCCC[C@H]23)c2c(=O)c3ccccc3oc12
pIC50 (Cholinesterase [4]): 6.43
pIC50 (Acetylcholinesterase [5]): 6.85
pIC50 [7]: 4.89

C[C@@H]1O[C@@H](OC[C@H]2O[C@@H](Oc3cc(O)c4c(c3)O[C@H](c3ccc(O)cc3)CC4=O)[C@H](O)[C@@H](O)[C@@H]2O)[C@H](O)[C@H](O)[C@H]1O
inhibition [8]: 53%
inhibition (Beta-secretase 1 [9]): 79.3%

CC(C)=CCc1cc2c(cc1O)O[C@@H](c1ccc(O)cc1)CC2=O
inhibition (Acetylcholinesterase [1]): 34%
inhibition (Beta-secretase 1 [2]): 17%
inhibition [3]: 19%

CCN(CC)C(=O)Oc1ccc(-c2cc(=O)c3c(O)c(O)c(O)cc3o2)cc1
pIC50 (Cholinesterase [4]): 4.66
Activity [10]: 10.3
pIC50 (Acetylcholinesterase [5]): 5.92

COc1cc(-c2oc3cc(O)cc(O)c3c(=O)c2O)ccc1O [ISORHAMNETIN]
Activity (SH-SY5Y [11]): 64%

O=C(O[C@H]1Cc2c(O)cc(O)cc2O[C@H]1c1ccc(O)c(O)c1)c1cc(O)c(O)c(O)c1
pIC50 [12]: 5.52
pIC50 (Beta-secretase 1 [13]): 5.62

O=c1c(O)c(-c2ccc(O)c(O)c2)oc2cc(O)cc(O)c12 [QUERCETIN]
pIC50 [14]: 5.62

CCC(=O)CNC(=O)Nc1nc2ccc(-c3oc4c(OC)c(O)c(O)c(OC)c4c(=O)c3O)cc2s1
pIC50 (Cholinesterase [4]): 9.49
pIC50 (Beta-secretase 1 [13]): 5.68
pIC50 (Acetylcholinesterase [5]): 7.00

O=c1c(O)c(-c2cc(O)c(O)c(O)c2)oc2cc(O)cc(O)c12
inhibition [15]: 65.2%

O=c1cc(-c2ccc(O)c(O)c2)oc2cc(O)cc(O)c12 [LUTEOLIN]
Activity (Mus musculus [16]): 49%

COc1cc2oc3cccc(O)c3c(=O)c2c(O)c1CN(C)C
pIC50 (Acetylcholinesterase [5]): 4.00

Cc1ccc(NCC[C@@H]2CCCN3CCCC[C@H]23)c2c(=O)c3ccccc3sc12
pIC50 (Cholinesterase [4]): 6.34
pIC50 (Acetylcholinesterase [5]): 5.28
pIC50 [7]: 6.08

CCN(CC)CCCCOc1cc(O)c2c(=O)c(-c3ccc(O)cc3)coc2c1
pIC50 (Cholinesterase [4]): < 4.00
Activity (SH-SY5Y [17]): 75.7%
pIC50 (Acetylcholinesterase [5]): 7.00

COc1ccc(/C=C2\COc3cc(OCCN4CCCCC4)ccc3C2=O)cc1
pIC50 [6]: 4.60

COc1ccc(-c2cc(=O)c3ccc(OCCN4CCC(C)CC4)cc3o2)cc1
pIC50 (Cholinesterase [4]): 7.61
pIC50 (Acetylcholinesterase [5]): 8.20

Oc1cc(O)c2c(c1)O[C@H](c1ccc(O)c(O)c1)[C@H](O)C2 [(-)-EPICATECHIN]
pIC50 [12]: 5.28

COc1ccc(/C=C2\COc3cc(OCCCCCN4CCCCC4)ccc3C2=O)cc1
pIC50 [6]: 6.19

COc1cc(-c2cc(=O)c3c(O)c([C@@H]4O[C@H](CO)[C@@H](O)[C@H](O)[C@H]4O)c(O)cc3o2)ccc1O
inhibition [18]: 41.5%

COc1c(O)cc2oc3cc(O)c(CC=C(C)C)c(O)c3c(=O)c2c1CCC(C)(C)O [GARCINONE D]
inhibition (Acetylcholinesterase [19]): 12.9%
inhibition (Beta-secretase 1 [20]): 62.7%
inhibition (Cholinesterase [21]): 15%
Activity (HT-22): 45.4%
inhibition [22]: 34.9%

O=c1c(O)c(-c2ccc(O)cc2O)oc2cc(O)cc(O)c12 [MORIN]
pIC50 [14]: 5.13

COc1cc(O)c2c(=O)c(O)c(-c3ccc(O)c(O)c3)oc2c1 [RHAMNETIN]
pIC50 [14]: 5.64

COc1ccc(-c2cc(=O)c3ccc(OCCN4CCOCC4)cc3o2)cc1
pIC50 (Cholinesterase [4]): 7.26
pIC50 (Acetylcholinesterase [5]): 7.96

O=C(O[C@@H]1Cc2c(O)cc(O)cc2O[C@@H]1c1cc(O)c(O)c(O)c1)c1cc(O)c(O)c(O)c1 [EPIGALOCATECHIN GALLATE]
pIC50 [12]: 6.74

CNC(=O)Oc1cccc(CN(C)CCCCCCCOc2cccc(-c3cc(=O)c4ccccc4o3)c2)c1
pIC50 (Acetylcholinesterase [23]): 9.28
inhibition [24]: 17.2%
pIC50 (Cholinesterase [25]): 7.20

COc1ccc(-c2cc(=O)c3ccc(OCCN4CCN(CCO)CC4)cc3o2)cc1
pIC50 (Cholinesterase [4]): 7.67
pIC50 (Acetylcholinesterase [5]): 8.12

O=c1cc(-c2ccc(O)c(O)c2)oc2cc(O)c([C@@H]3O[C@H](CO)[C@@H](O)[C@H](O)[C@H]3O)c(O)c12
inhibition [18]: 48.4%

O=c1cc(-c2ccc(O)cc2)oc2cc(O)cc(O)c12 [APIGENIN]
Activity (Mus musculus [26]): 20%

CN(C)CCNC(=O)COc1cc(O)c2c(=O)c(-c3ccc(O)cc3)coc2c1.Cl
Activity (HepG2): 1.53%
inhibition (Cholinesterase [21]): 26%
pIC50 (Acetylcholinesterase [5]): 5.56

COc1cc(O)c2c(=O)c3cccc(O)c3oc2c1
pIC50 [27]: 4.48
pKi (Acetylcholinesterase [28]): 4.28

O=c1c(O)c(-c2ccc(O)c(O)c2)oc2cc(O)ccc12 [FISETIN]
pIC50 [14]: 4.90
